# According to patent publication US5736528A, “N^6 -(epoxynorborn-2-yl) adenosines as A1 adenosine receptor agonists” (priority 1995, dated 1998):
# Where two headings read alike, the source gives them in different places.
# Columns and labels:
# [1] = test system: guinea pig hearts; test: Left ventricular pressure and dP/dt (inotropic effect) in isolated hearts
# From the text: Identical results were obtained in three other hearts.
# [2] = test system: rats; test: Cumulative urine output (diuretic activity) in rats; format: in vivo, rat
# [3] = molecular target: T1, rat brain adenosine A1 receptors (Rattus norvegicus, UniProt P25099); test: Antagonism of radioligand binding to rat brain adenosine A1 receptors
# T1 construct: rat brain A1 adenosine receptors; from tissue; host or cells: rat brain
# T1 sequence (P25099 1-326): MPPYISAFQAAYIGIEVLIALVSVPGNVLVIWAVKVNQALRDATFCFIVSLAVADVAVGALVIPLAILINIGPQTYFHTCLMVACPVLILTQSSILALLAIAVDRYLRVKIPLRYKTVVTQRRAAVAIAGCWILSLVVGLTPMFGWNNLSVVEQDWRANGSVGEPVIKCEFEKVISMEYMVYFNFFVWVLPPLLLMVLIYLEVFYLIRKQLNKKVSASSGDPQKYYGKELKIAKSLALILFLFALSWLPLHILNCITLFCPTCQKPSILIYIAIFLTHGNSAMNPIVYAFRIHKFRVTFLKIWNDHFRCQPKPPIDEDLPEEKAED
# From the text: (§2) rat brain adenosine A1 and A2 receptors ("IC50 "* values)
# (§3) *"IC50 " refers to the concentration at which radioligand binding to
# receptors was 50% inhibited.
# [4] = test system: negative dromotropic effect of carbachol or MgCl2; test: Specificity: negative dromotropic effect of carbachol or MgCl2 in isolated heart; parameters: species or system guinea pig; settings: ENX 2 nM, 2 μM
# From the text: The height of each bar graph presents the mean±SEM of 4 experiments. Only the S--H interval prolongation caused by adenosine was antagonized by ENX.
# [5] = molecular target: T2, A1 receptor (Cavia porcellus, UniProt P47745); test: S-H interval prolongation by adenosine in isolated heart, antagonism by ENX; parameters: species or system guinea pig
# T2 construct: isolated perfused guinea pig heart; from tissue; host or cells: isolated perfused guinea pig heart
# T2 sequence (P47745 1-326): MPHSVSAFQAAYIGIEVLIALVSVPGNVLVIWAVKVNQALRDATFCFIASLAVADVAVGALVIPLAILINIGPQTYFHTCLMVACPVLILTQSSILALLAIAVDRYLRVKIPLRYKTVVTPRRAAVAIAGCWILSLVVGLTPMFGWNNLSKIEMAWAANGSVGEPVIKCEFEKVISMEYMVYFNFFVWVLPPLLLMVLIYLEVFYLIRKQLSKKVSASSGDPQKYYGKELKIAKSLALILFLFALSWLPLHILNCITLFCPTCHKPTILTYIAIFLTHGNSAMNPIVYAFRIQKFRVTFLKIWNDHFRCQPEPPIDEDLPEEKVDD
# From the text: The height of each bar graph presents the mean±SEM of 4 experiments.
# [6] = molecular target: T3, A2 receptor (Cavia porcellus, UniProt P46616); test: Antagonism of A2 receptor-mediated coronary vasodilation (coronary conductance) caused by adenosine, isolated perfused heart; parameters: species or system guinea pig
# T3 construct: isolated perfused guinea pig heart; from tissue; host or cells: isolated perfused guinea pig heart (coronary circulation)
# From the text: The values are the mean±SEM from five guinea pig hearts.
# of a maximum coronary vasodilation caused by adenosine. Values in
# [7] = molecular target: T4, rat brain adenosine A2 receptors (Rattus norvegicus, UniProt P30543); test: Antagonism of radioligand binding to rat brain adenosine A2 receptors
# T4 construct: rat brain adenosine A1 and A2 receptors; from tissue; host or cells: rat brain
# From the text: as §2, §3
# receptors was 50% inhibited.
# [8] = molecular target: T2, A1 receptor; test: A1 receptor binding with [3H]CPX in brain membranes (Table 4); parameters: species or system guinea pig
# From the text: Radioligand binding studies.
# (§4) Values are mean ± SEM of triplicate determinations in each
# of several (n) preparations.
# [9] = molecular target: T5, A1 adenosine receptor (Cavia porcellus, UniProt P47745); test: A1 receptor binding with [3H]CPX in forebrain membranes (Table 5); parameters: guinea pig forebrain (A1 receptor); from tissue; host or cells: guinea pig forebrain membranes; species or system guinea pig
# From the text: (§5) Values are mean ± S.E.M. of triplicate determinations in
# each of four preparations.
# [10] = test system: guinea pig tracheal muscle; test: Relaxation of tracheal muscle
# From the text: (§1) However, that can be useful in treating conditions that indicate short-acting treatments.
# [11] = test system: phosphodiesterase; test: Phosphodiesterase activity in homogenates of DDT1 MF-2 cells; format: biochemical; settings: DDT1 MF-2 homogenate, 45 min, 30° C.
# Procedure: Cells were homogenized in 40 mM Tris buffer at pH 8.0, and the whole homogenate was used in the enzyme assays. PDE activity was determined by incubating homogenate (0.4 mg protein) in Tris buffer containing 20 mM MgCl2, 4 mM mercaptoethanol, 0.06 mg bovine serum albumin, 0.4 mM cAMP 130 nCi of [^3 H]cAMP and the indicated concentrations of ENX or IBMX for 45 min at 30° C. Blank incubations were carried out in parallel assays without the homogenate. At the end of the incubation, the suspensions were incubated in a boiling water bath for 2 minutes, transferred to an ice-water bath for 2 minutes and 0.1 mg of snake venom phosphodiesterase was added. The suspensions were incubated for 10 minutes at 30° C., and the adenosine formed was isolated by ion exchange chromatography. […] The amount of adenosine formed was linear over the incubation period used.
# [12] = molecular target: T2, A1 receptor; test: Antagonism of A1 receptor-mediated negative dromotropic effect (S-H interval prolongation) of CCPA, Schild analysis, isolated perfused heart; parameters: species or system guinea pig; settings: for Slope of Schild plot: mean ± S.E.M.
# From the text: Potency of various alkylxanthines to antagonize A1
# cardiac response: results of Schild analysis.
# Cardiac response: antagonism of the negative dromotropic effect of the
# selective A1 agonist CCPA.
# [13] = molecular target: T6, A2 adenosine receptor (Cavia porcellus, UniProt P46616); test: A2 receptor binding with [3H]CGS 21,860 in striatum membranes (Table 5); parameters: species or system guinea pig; settings: mean ± S.E.M., read-out: K1, A2 (striatum)
# T6 construct: from tissue; host or cells: guinea pig striatum membranes
# From the text: as §5
# each of four preparations.
# [14] = molecular target: T7, A2 receptor (Rattus norvegicus, UniProt P30543); test: A2 receptor binding with [3H]NECA in PC12 cell membranes; settings: mean ± SEM (n), read-out: Ki, PC-12
# T7 construct: endogenous in cells; host or cells: PC12 cell membranes
# Procedure: Radioligand binding studies.
# A2 receptor binding was carried out with [^3 H]NECA in PC12 cell
# membranes. Values are mean ± SEM of triplicate determinations in each
# of several (n) preparations.
# [15] = molecular target: T8, A1 receptor (Mesocricetus auratus, UniProt A0A1U8BVR4); test: A1 receptor binding with [3H]CPX in intact DDT1 MF2 cells
# T8 sequence (A0A1U8BVR4 1-326): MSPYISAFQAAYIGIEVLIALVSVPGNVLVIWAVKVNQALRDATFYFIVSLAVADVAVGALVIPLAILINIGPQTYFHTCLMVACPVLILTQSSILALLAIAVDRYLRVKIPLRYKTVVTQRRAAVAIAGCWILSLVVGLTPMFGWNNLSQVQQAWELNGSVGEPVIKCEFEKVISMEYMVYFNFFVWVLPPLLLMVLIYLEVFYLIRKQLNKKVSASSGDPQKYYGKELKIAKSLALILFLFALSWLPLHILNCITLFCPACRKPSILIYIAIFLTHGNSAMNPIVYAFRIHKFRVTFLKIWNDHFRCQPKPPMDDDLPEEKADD
# From the text: Radioligand binding studies.
# as §4
# of several (n) preparations.
# [16] = molecular target: T9, A1-adenosine receptor (Mesocricetus auratus, UniProt A0A1U8BVR4); settings: EC50, text to Table 8, DDT cells
# T9 sequence (A0A1U8BVR4 1-326): T8 sequence (A0A1U8BVR4 1-326)
# Procedure: (§6) The agonist compounds were tested for their potency to inhibit (-)isoproterenol stimulated cAMP accumulation in DDT1 MF-2 (DDT) cells. This effect is mediated through the action of the A1 -adenosine receptor (A1 AR).
# (§7) Cells were seeded at 0.2-1.0×10^4 cells/cm^2 and subcultured twice weekly after detachment using divalent cation-free phosphate-buffered saline containing 1 mM ethylenediamine tetraacetic acid (EDTA). Experiments were performed on cells that were grown to 1 day preconfluent.
# (§8) The potency of the A1 AR agonists was determined by their ability to inhibit (-)isoproterenol-stimulated cAMP accumulation. […] After cooling to room temperature, the tubes were centrifuged for 2 minutes at 10,000 g, and supernatants were saved.
# (§9) Briefly, an aliquot of the supernatant (50 μL) was incubated in a volume of 0.2 mL containing 25 mM Tris-HCl buffer (pH 7.0), 8 mM theophylline, 0.8 pmol [^3 H]cAMP (31.4 Ci/mmol, New England Nuclear) and 20 μg of bovine heart cAMP dependent protein kinase (Sigma Chemical Co.) at 4° C. for 1 hour. At the end of the incubation, 75 μl of a 50% (v/v) hydroxyapatite-water suspension was added to each tube followed by 4 ml of ice-cold 10 mM Tris-HCl buffer (pH 7.0). The suspension was then poured onto a Whatman GF/B glass fiber filter under reduced pressure, the filter was washed with a further 6 ml of ice-cold buffer, placed in a scintillation vial with 4 mL of Liquiscint (National Diagnostics), and the radioactivity determined in a liquid scintillation counter. The amount of cAMP in the samples was calculated from a standard curve using known concentrations of unlabeled cAMP.
# [17] = molecular target: A1 adenosine receptor (Homo sapiens, UniProt P30542); test: A1 adenosine receptor agonist potency and selectivity (summary); settings: racemic isomers
# [18] = test system: A1-adenosine receptor; settings: 1 μM alone; 10 min
# Procedure: as §6, §7, §8, §9
# [19] = test system: A1-adenosine receptor; settings: 1 μM (-)isoproterenol
# Procedure: as §6, §7, §8, §9
# [20] = test system: paroxysmal supraventricular tachycardia (PSVT); settings: in vivo; cited from earlier work
# [21] = molecular target: T5, A1 adenosine receptor; test: Slowing of A-V conduction (A1 effect) versus coronary vasodilation (A2 effect); parameters: slowing of A--V (A1 effect) conduction; from tissue
# [22] = test system: A2 adenosine receptor; test: Hypotensive (A2) effect in whole animals; format: in vivo
# [23] = molecular target: T10, A1 adenosine receptor (Rattus norvegicus, UniProt P25099); test: Biological activity and duration of action of ENX enantiomers; format: in vivo; settings: for duration of action: S- vs R-enantiomer
# T10 construct: from tissue; host or cells: whole animal
# T10 sequence (P25099 1-326): T1 sequence (P25099 1-326)
# [24] = Metabolism of ENX enantiomer; format: in vitro ADME
# [25] = molecular target: T11, rat brain A1 adenosine receptors (Rattus norvegicus, UniProt P25099); test: Equilibrium dissociation constants for rat brain A1 adenosine receptors; format: binding; settings: Table 6
# T11 construct: rat brain A1 adenosine receptors; from tissue; host or cells: rat brain
# [26] = test system: serum cholesterol and heparin precipitating β-lipoproteins; test: Serum cholesterol and heparin precipitating β-lipoproteins in mice; format: in vivo; settings: 100 mg/kg per os
# [27] = test system: hydrated rat; test: Saluretic/kaluretic activity in hydrated rat; format: in vivo; settings: 30 mg/kg per os
# From the text: as §1
# T4 sequence (P30543 whole entry): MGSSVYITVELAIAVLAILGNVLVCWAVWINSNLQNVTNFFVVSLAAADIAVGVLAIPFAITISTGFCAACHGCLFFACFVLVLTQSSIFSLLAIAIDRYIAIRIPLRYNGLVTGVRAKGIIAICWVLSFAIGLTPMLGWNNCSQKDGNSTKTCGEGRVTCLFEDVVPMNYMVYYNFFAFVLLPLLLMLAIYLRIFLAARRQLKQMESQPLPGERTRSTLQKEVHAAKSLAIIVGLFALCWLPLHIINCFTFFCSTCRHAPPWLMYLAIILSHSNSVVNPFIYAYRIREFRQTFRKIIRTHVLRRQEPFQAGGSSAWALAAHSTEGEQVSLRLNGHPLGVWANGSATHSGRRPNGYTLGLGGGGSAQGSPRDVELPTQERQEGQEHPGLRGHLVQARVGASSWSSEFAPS
# T3 sequence (P46616 whole entry, the tested form may be a part): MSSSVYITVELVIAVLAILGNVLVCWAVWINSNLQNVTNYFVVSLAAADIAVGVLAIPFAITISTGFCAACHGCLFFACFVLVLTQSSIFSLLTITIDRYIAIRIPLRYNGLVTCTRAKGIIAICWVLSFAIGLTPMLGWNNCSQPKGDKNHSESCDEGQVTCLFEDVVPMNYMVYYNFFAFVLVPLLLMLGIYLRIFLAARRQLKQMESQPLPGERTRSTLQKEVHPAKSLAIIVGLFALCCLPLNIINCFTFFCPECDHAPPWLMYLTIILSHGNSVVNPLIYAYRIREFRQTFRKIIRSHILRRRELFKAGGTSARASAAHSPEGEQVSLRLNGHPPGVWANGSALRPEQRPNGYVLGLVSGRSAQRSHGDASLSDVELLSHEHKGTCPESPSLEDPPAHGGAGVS
# Sequence of A1 adenosine receptor (Homo sapiens, UniProt P30542) (P30542 whole entry): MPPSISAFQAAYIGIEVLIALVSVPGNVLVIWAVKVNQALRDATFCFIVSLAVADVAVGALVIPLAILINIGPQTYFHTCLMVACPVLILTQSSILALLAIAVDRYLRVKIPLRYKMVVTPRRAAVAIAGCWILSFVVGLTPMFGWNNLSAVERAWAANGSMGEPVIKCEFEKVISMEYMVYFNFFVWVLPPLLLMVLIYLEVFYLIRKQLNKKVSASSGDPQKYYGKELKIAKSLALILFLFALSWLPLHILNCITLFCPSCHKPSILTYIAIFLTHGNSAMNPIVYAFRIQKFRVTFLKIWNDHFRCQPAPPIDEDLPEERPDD
# T6 sequence (P46616 whole entry): as the sequence (P46616 whole entry, the tested form may be a part) above
# T7 sequence (P30543 whole entry): as the sequence (P30543 whole entry) above
structure (smiles),measurement,setting,value
"CCCn1c(=O)c2[nH]c(C3CC4CC3C3OC43)nc2n(CCC)c1=O (racemic) [ENX, 1,3-dipropyl-8-{3-oxatricyclo[3.1.2.0^2,4]oct-6(7)-yl}-xanthine]","stimulus-to-His bundle interval, ENX alone","[1]; ENX alone, up to 200 μM",no significant changes
same,LVP or dP/dt,"[1]; normoxic hearts, ENX 2-200 μM",no significant changes
same,diuretic potency compared with furosemide (Lasix),"[2]; rat, in vivo",at least as high as the potency of furosemide
same,IC50,[3],1.65 nM
same,antagonism of negative dromotropic effect of carbachol or MgCl2,[4],did not antagonize
same,antagonism of S-H prolongation caused by adenosine,"[5]; ENX 2 nM, 2 μM, adenosine 4 μM",did antagonize
same,effect on S-H interval prolongation caused by adenosine,[5]; ENX 0.4 μM with adenosine 4 μM,completely inhibited
same,IC50 for A2 receptor-mediated coronary vasodilation,[6],no effect
same,inhibition at 50 µM,[6]; read-out: inhibition of coronary vasodilation,0%
same,IC50,[7],2100 nM
same,Ki,[8],0.45 ± 0.22 nM
same,Ki,[9],0.45 ± 0.13 nM
same,tracheal smooth muscle relaxation / bronchodilation,[10],relax tracheal smooth muscle
same,phosphodiesterase inhibition,[11],does not inhibit phosphodiesterase
same,Kb,[12],3.6 nM
same,Slope of Schild plot,[12],-0.91 ± 0.06
same,Ki,[13],360 ± 36 nM
same,Ki,[14],11700 nM
same,Ki,[15],0.22 ± 0.03 nM
"OC[C@H]1O[C@@H](n2cnc3c(N[C@H]4C[C@@H]5C[C@H]4[C@H]4O[C@@H]54)ncnc32)[C@H](O)[C@@H]1O (relative stereo) [N^6-(endo-5,6-epoxynorborn-2-yl) adenosine]",EC50,[16],1 to 2 nM
same,A1 agonist potency and selectivity,[17],potent and highly selective agonists
"[O-][n+]1cnc2c(ncn2[C@@H]2O[C@H](CO)[C@@H](O)[C@H]2O)c1N[C@@H]1C[C@@H]2C[C@H]1[C@H]1O[C@@H]21 (relative stereo) [N^6-(exo-5,6-epoxynorborn-2-yl) adenosine-1-oxide]",EC50,[16],403 nM
"OC[C@H]1O[C@@H](n2cnc3c(N[C@@H]4C[C@@H]5C[C@H]4[C@H]4O[C@@H]54)ncnc32)[C@H](O)[C@@H]1O (relative stereo) [N^6-(exo-5,6-epoxynorborn-2-yl) adenosine]",EC50,[16],1 to 2 nM
same,A1 agonist potency and selectivity,[17],potent and highly selective agonists
"CC(C)NC[C@H](O)c1ccc(O)c(O)c1 [(-)Isoproterenol, reference compound]",cAMP accumulation increase above basal level,[18],57 fold
same,stimulated cAMP accumulated,[19],458 ± 41 pmol cAMP formed per 10 minutes
Nc1ncnc2c1ncn2[C@@H]1O[C@H](CO)[C@@H](O)[C@H]1O [Adenosine],effectiveness in terminating PSVT,[20],> 90%
"OC[C@H]1O[C@@H](n2cnc3c(NC4CCCC4)ncnc32)[C@H](O)[C@@H]1O [CPA, N^6 -cyclopentyladenosine, reference compound]",EC50,[16],1 to 2 nM
"Cn1c(=O)c2[nH]c(C3CCCC3)nc2n(C)c1=O [CPT, 8cyclopentyl-1,3-dimethylxanthine]",Ki,"[8]; read-out: Ki, Brain",41 ± 13 nM
"CCCn1c(=O)c2[nH]c(C3CCCC3)nc2n(CCC)c1=O [CPX, 8-cyclopentyl-1,3-dipropylxanthine]",Slope of Schild plot,[12],-0.81 ± 0.03
same,Ki,[15],0.13 ± 0.01 nM
"CC(C)Cn1c(=O)n(C)c(=O)c2[nH]cnc21 [IBMX, isobutylmethylxanthine, reference compound]",phosphodiesterase inhibition,[11],inhibits phosphodiesterase
"CCCn1c(=O)c2[nH]c(C34CC5CC(CC3C5)C4)nc2n(CCC)c1=O [NAX, 1,3dipropyl-8-(3-noradamantyl)xanthine]",IC50,[6],7100 nM
same,Ki,"[8]; read-out: Ki, Brain",3.8 ± 0.21 nM
same,Kb,"[12]; Schild analysis, numbers in parentheses are minimum and maximum KB values, read-out: KB, equilibrium dissociation constant",1.6 nM
same,Slope of Schild plot,[12],-0.89 ± 0.11
same,Ki,[13],22 ± 6.9 nM
same,Ki,"[15]; read-out: Ki, DDT1 MF2",0.18 ± 0.05 nM
"OC[C@H]1O[C@@H](n2cnc3c(N[C@H]4C[C@@H]5C[C@H]4[C@H]4O[C@@H]54)ncnc32)[C@H](O)[C@@H]1O [N^6-(2S-endo-5,6-epoxynorborn-2-yl) adenosine]",potency for slowing of A-V conduction (A1) over coronary vasodilation (A2),[21],more than 100 fold
same,hypotensive (A2) effect,[22],no discernable hypotensive (A2) effect
CCCn1c(=O)c2[nH]c([C@@H]3C[C@H]4C[C@@H]3[C@@H]3O[C@H]43)nc2n(CCC)c1=O [R-ENX],duration of action,[23],very short duration of action as compared to the S-enantiomer
same,IC50,[3],2.7 nM
same,metabolism,[24],rapidly degraded or metabolized
same,IC50,[7],2600 nM
same,tracheal smooth muscle relaxation / bronchodilation,[10],bronchodilators
same,relaxation of spontaneous tone in trachea,[10]; guinea pig trachea,induce relaxation of spontaneous tone
same,Ki,[25],2.1 nM
CCCn1c(=O)c2[nH]c([C@H]3C[C@@H]4C[C@H]3[C@H]3O[C@@H]43)nc2n(CCC)c1=O [S-ENX],serum cholesterol and heparin precipitating β-lipoproteins,[26],reduced serum cholesterol and heparin precipitating β-lipoproteins
same,diuretic activity (cumulative urine output),"[2]; 0.1 mg/kg i.v., 2 hours, rats",more potent than the R-enantiomer of ENX or a racemic mixture of R-and S-enantiomers of ENX
same,duration of action,[23]; listed as S-enantiomer,longer duration of action than the R-enantiomer
same,duration of action,[23]; listed as S-enantiomer of ENX,longer
same,share of the biological activity of racemic ENX,[23]; in vivo,80-90%
same,IC50,[3],1.15 nM
same,kaluretic activity,[27],Moderate kaluretic activity
same,IC50,[7],9000 nM
same,tracheal smooth muscle relaxation / bronchodilation,[10],bronchodilators
same,relaxation of constricted tracheal muscle,"[10]; guinea pig, 100 mg/kg per os",relaxed constricted guinea pig tracheal muscle
same,Ki,[25],0.98 nM
